Consider 1 compound from US20090280068A1, “POLYMORPH OF 8-HYDROXY-5-[(1R)-1-HYDROXY-2-[[(1R)-2-(4-METHOXYPHENYL)-1-METHYLETHYL]AMINO]ETHYL]-2(1H)-QUINOLINONE MONOHYDROCHLORIDE” (Chiesi Farmaceutici S.p.A., priority 2008, published 2009).

This series can be described thus: Stability studies: storage under different relative humidity conditions, checked by XRPD pattern. In kind it is physicochemical. Conditions: solid stored at 25° C., 1 week each at 40%, 60%, 80%, 30%, 0% and 40% RH. On the procedure:
The XRPD analyses were carried out on a PANanalytical X'pert Pro X-ray powder diffractometer using Cu Kα radiation. The instrument was equipped with a X'Celerator detector. A theta-two theta continuous scan from 2.5 degrees 2 theta to 40 degrees 2 theta was used. Each sample was prepared for analysis by placing it in a quartz sample holder. The XPRD patterns are reported in terms of degrees 2 theta (°2θ, accuracy ±0.1°), diffraction peak intensity (height, [cts]), full width at half maximum (FWHM, [°2θ]), interatomic spacing in angstroms (d-spacing, [Å]), and relative intensities (%). The relative intensity is recorded as the ratio of the peak intensity to that of the most intense peak.
In order to check its thermodynamic stability, CHF 4226 crystal form D was stored at room temperature under different relative humidity (RH) conditions: • 40% RH. and 25° C. for 1 week • 60% RH. and 25° C. for 1 week • 80% RH and 25° C. for 1 week • 60% RH and 25° C. for 1 week • 40% RH and 25° C. for 1 week • 30% RH and 25° C. for 1 week • 0% RH. and 25° C. for 1 week • 40% RH and 25° C. for 1 week The thermodynamic stability of all the samples was checked by recording their XPRD pattern.

On to `COc1ccc(C[C@@H](C)NC[C@H](O)c2ccc(O)c3[nH]c(=O)ccc23)cc1.Cl` [CHF 4226 crystal form D, 8-hydroxy-5-[(1R)-1-hydroxy-2-[[(1R)-2-(4-methoxyphenyl)-1-methylethyl]amino]ethyl]-2(1H)-quinolinone monohydrochloride], for which the “thermodynamic stability (XPRD pattern after storage)” value is given as “stable features under all stability screening conditions”.
